EP0726257A1, “1-(Hetero)Arylvinyl-5H-2,3-benzodiazepine derivatives useful for the treatment of central nervous system disorders, and benzopyrylium intermediates for their preparation” (EGIS GYOGYSZERGYAR RT., priority 1995, dated 1996)
Like-named read-outs stand apart in the source and are kept apart here.

Key:
[1] = molecular target: homophthalazine binding site; assay: Displacement of 3H-girisopam from the homophthalazine binding site in rat brain striatal membrane preparation; conditions: displacing 5 nM 3H-girisopam
Procedure: Ki values were calculated according to the following equation: Ki = IC50 :(1 +([L])/(KD)), [formula] wherein KD is the dissociation constant of the labelled ligand-receptor complex, [L] is the concentration of the labelled ligand and IC50 is the half maximal inhibitory concentration of the test compound.

Catalepsy in rats = assay: Cataleptic effect in rats (Morpurgo); format: in vivo; conditions: p.o.
Procedure: (§1) The cataleptic effect of the compounds was measured both in mice (Schlichtegroll: Arzneim. Forsch., 8, 489, [1958]) and in rats (Morpurgo: Arch. Int. Pharmacodyn., 137, 87, [1962]).

Catalepsy in mice = assay: Cataleptic effect in mice (Schlichtegroll); format: in vivo; conditions: p.o.
Procedure: as §1

[2] = system: spontaneous motor activity (SMA) in mice; assay: Behavioural effects according to Irwin (decrease in spontaneous motor activity); format: in vivo; design: key: ++ strong; + moderate; +- slight decrease in spon-taneous motor activity [SMA]
Procedure: (§2) The behavioural effects of 1-[2'-(substituted) vinyl]-5H-2,3-benzodiazepine derivatives according to the invention and of reference substances were measured according to the method of Irwin (Psychopharmacology, 13, 222 [1968]). The results and the acute toxicity data (dead/treated animals, shown in brackets) can be seen in the following Table II
(§3) From the above Table II it can be taken that the 1-[2'-(substituted) vinyl]-5H-2,3-benzodiazepine derivatives according to the invention considerably decrease the spontaneous motor activity (SMA) in mice after intraperitoneal or oral administration.

mice = assay: Acute toxicity (dead/treated animals) in the Irwin test; format: in vivo
Procedure: as §2, §3

[3] = system: spontaneous motor activity of mice; assay: Inhibition of spontaneous motor activity according to Borsy et al.; format: in vivo; conditions: Mus musculus, po, 0.5 h
Procedure: The potential antipsychotic activity of 1-[2'-(substituted) vinyl]-5H-2,3-benzodiazepine derivatives according to the invention and of reference substances was tested according to the method of Puech et al. (Psychopharmacology, 75, 84, [1981] by measuring their inhibiting effect on the "climbing" reaction induced by 5,6,6a,7-tetra-(hydro)-6-(methyl)-4H-dibenzo[de,g]quinoline-10,11-di-(ol){apomorphine}. The results have been expressed as ED50 values. Since the inhibition of the spontaneous motor activity (SMA) is an important characteristic of the antipsychotic drugs, the ED50 values of a number of compounds were determined according to the method of Borsy et al. (Arch. Int. Pharmacodyn., 124, 1, 196).
The effect of the 1-[2'-(substituted) vinyl]-5H-2,3-benzodiazepine derivatives according to the invention on the spontaneous motor activity was tested according to the method of Borsy et al. Groups consisting of 3 mice were treated orally with different doses of the compounds to be tested. Then the animals were placed into a 10-channel Dews system equipment, wherein the number of interruptions of infrared beam within 30 minutes was counted. […]

rats = assay: Elevated plus-maze test (Pellow), anxiolytic activity; format: in vivo; conditions: Rattus norvegicus, po, 1 h; p.o., elevated plus maze, Sprague Dawley rats, 60 minutes pretreatment, significant increase of time spent on open arms; read-out: Minimum effective dose
Text: The anxiolytic activity was studied in rats according to the "lick-conflict" test elaborated by Vogel et al. (Psychopharmacology, 21, 1, [1971] and the elevated plus-maze test described by Pellow (Pellow, J.: Neurosci. Meth. 14, 149, [1985]). The antiaggressive effect was investigated in mice using the "fighting behaviour" method of Tedeschi (J. Pharm. Exp. Ther., 125, 28, [1959]). The minimal effective dose (MED) values and the ED50 values obtained are shown in the following Table V.
The anxiolytic activity of these compounds was investigated in the elevated plus maze test. Male rats belonging to the Sprague Dawley strain and weighing 220 to 260 g were used as test animals. The test was carried out with the aid of a wooden plus-shaped maze elevated to a height of 50 cm and containing two enclosed and two open arms (50 cm long and 15 cm wide). After 60 minutes pretreatment the animals were placed into the maze and observed for 5 minutes. The drug effect was expressed as percent increase of the time spent on the open arms and number of open arm entries. The minimum effective dose (MED) which caused a significant increase of the time spent on the open arms was calculated for every substance [Pelow, S., Chopin, P., File, S.E., Briley, M.: J. Neurosci. Methods 14, 149 to 167 [1985]).

[4] = p.o., mice, interruptions of infrared beam within 30 minutes, read-out: ID50 (the source's name)

COc1ccc(C=CC2=NN=C(C)Cc3cc(OC)c(OC)cc32)cc1 [Example 9]
Ki [1]: 18 nM

COc1cc2c(cc1OC)C(C=Cc1ccc([N+](=O)[O-])cc1)=NN=C(C)C2 [Example 12]
Ki [1]: 17 nM

COc1ccc(C=CC2=NN=C(C)Cc3cc(OC)c(OC)cc32)cc1C [Example 14]
Ki [1]: 16 nM

COc1cc2c(cc1OC)C(C=Cc1ccc(OC(C)C)cc1)=NN=C(C)C2 [Example 15]
Ki [1]: 13 nM

COc1cc2c(cc1OC)C(C=Cc1cccc(OC(C)C)c1)=NN=C(C)C2 [Example 16]
Ki [1]: 11 nM

COc1cc2c(cc1OC)C(C=Cc1ccccc1OC(C)C)=NN=C(C)C2 [Example 18]
Ki [1]: 18 nM

COc1cc2c(cc1OC)C(C=Cc1ccc3c(c1OC)OCO3)=NN=C(C)C2 [Example 21]
Catalepsy in rats Minimal effective dose [MED] (Catalepsy in rats): >100 mg/kg | Catalepsy in mice Minimal effective dose [MED] (Catalepsy in mice): >100 mg/kg | Ki [1]: 8 nM

COc1cc2c(cc1OC)C(C=Cc1ccc(F)cc1)=NN=C(C)C2 [Example 28]
Ki [1]: 12 nM

COc1cc2c(cc1OC)C(C=Cc1ccccc1)=NN=C(C)C2 [Example 33]
Ki [1]: 12 nM

COc1cc2c(cc1OC)C(C=Cc1ccccc1Br)=NN=C(C)C2 [Example 36]
Ki [1]: 10 nM

CCC1C(C)=NN=C(C=Cc2ccc(N(C)C)cc2)c2cc(OC)c(OC)cc21 (stereo not shown) [Example 37]
Behaviour ([2]; 300 mg/kg i.p.): + + | Behaviour ([2]; 1000 mg/kg p.o.): + + | acute toxicity (dead/treated animals) (mice; 300 mg/kg i.p.): 0/5 | acute toxicity (dead/treated animals) (mice; 1000 mg/kg p.o.): 4/5

COc1cc2c(cc1OC)C(C=Cc1ccc(OC)c(C(C)C)c1)=NN=C(C)C2 [Example 40]
Behaviour ([2]; 300 mg/kg i.p.): + + | Behaviour ([2]; 1000 mg/kg p.o.): + + | acute toxicity (dead/treated animals) (mice; 300 mg/kg i.p.): 0/5 | acute toxicity (dead/treated animals) (mice; 1000 mg/kg p.o.): 4/5

CCCc1cc(C=CC2=NN=C(C)Cc3cc(OC)c(OC)cc32)ccc1OC [Example 41]
Ki [1]: 16 nM

COc1cc2c(cc1OC)C(C=Cc1ccccc1C)=NN=C(C)C2 [Example 42]
Behaviour ([2]; 300 mg/kg i.p.): + + | Behaviour ([2]; 1000 mg/kg p.o.): + + | Ki [1]: 11 nM | acute toxicity (dead/treated animals) (mice; 300 mg/kg i.p.): 0/5 | acute toxicity (dead/treated animals) (mice; 1000 mg/kg p.o.): 0/5

COc1cc2c(cc1OC)C(C=Cc1ccc(C(F)(F)F)cc1)=NN=C(C)C2 [Example 45]
Ki [1]: 15 nM

CCC1C(C)=NN=C(C=Cc2cccc(Cl)c2)c2cc(OC)c(OC)cc21 (stereo not shown) [Example 48]
Behaviour ([2]; 300 mg/kg i.p.): + | Behaviour ([2]; 1000 mg/kg p.o.): +- | Ki [1]: 19 nM | acute toxicity (dead/treated animals) (mice; 300 mg/kg i.p.): 0/5 | acute toxicity (dead/treated animals) (mice; 1000 mg/kg p.o.): 0/5

CCN(CC)c1ccc(C=CC2=NN=C(C)Cc3cc(OC)c(OC)cc32)cc1 [Example 49]
Behaviour ([2]; 300 mg/kg i.p.): + + | Behaviour ([2]; 1000 mg/kg p.o.): + + | Ki [1]: 10 nM | acute toxicity (dead/treated animals) (mice; 300 mg/kg i.p.): 0/5 | acute toxicity (dead/treated animals) (mice; 1000 mg/kg p.o.): 3/5

COc1cc2c(cc1OC)C(C=Cc1cccc(Cl)c1)=NN=C(C)C2 [Example 51]
Catalepsy in rats Minimal effective dose [MED] (Catalepsy in rats): >100 mg/kg | Behaviour ([2]; 300 mg/kg i.p.): + | Behaviour ([2]; 1000 mg/kg p.o.): + + | Catalepsy in mice Minimal effective dose [MED] (Catalepsy in mice): 100 mg/kg | Ki [1]: 19 nM | acute toxicity (dead/treated animals) (mice; 300 mg/kg i.p.): 0/6 | acute toxicity (dead/treated animals) (mice; 1000 mg/kg p.o.): 0/6

COc1cc2c(cc1OC)C(C=Cc1ccccc1Cl)=NN=C(C)C2 [Example 54]
Behaviour ([2]; 300 mg/kg i.p.): + | Behaviour ([2]; 1000 mg/kg p.o.): + | acute toxicity (dead/treated animals) (mice; 300 mg/kg i.p.): 2/5 | acute toxicity (dead/treated animals) (mice; 1000 mg/kg p.o.): 2/5

COc1ccc(C=CC2=NN=C(C)Cc3cc(OC)c(OC)cc32)cc1Cl [Example 55]
Ki [1]: 11 nM

COc1cc(OC)c(C=CC2=NN=C(C)Cc3cc(OC)c(OC)cc32)c(OC)c1 [Example 58]
Behaviour ([2]; 300 mg/kg i.p.): + | Behaviour ([2]; 1000 mg/kg p.o.): + + | Ki [1]: 19 nM | acute toxicity (dead/treated animals) (mice; 300 mg/kg i.p.): 0/5 | acute toxicity (dead/treated animals) (mice; 1000 mg/kg p.o.): 0/5

COc1cc(OC)c(OC)cc1C=CC1=NN=C(C)Cc2cc(OC)c(OC)cc21 [Example 59]
Ki [1]: 16 nM

CCC1C(C)=NN=C(C=Cc2ccc(OC)c(OC)c2)c2cc(OC)c(OC)cc21 (stereo not shown) [Example 64]
Behaviour ([2]; 300 mg/kg i.p.): + | Behaviour ([2]; 1000 mg/kg p.o.): +- | acute toxicity (dead/treated animals) (mice; 300 mg/kg i.p.): 0/5 | acute toxicity (dead/treated animals) (mice; 1000 mg/kg p.o.): 0/5

COc1cc2c(cc1OC)C(C=Cc1ccc3c(c1)OCO3)=NN=C(C)C2 [Example 67]
Catalepsy in rats Minimal effective dose [MED] (Catalepsy in rats): >100 mg/kg | Behaviour ([2]; 300 mg/kg i.p.): +- | Behaviour ([2]; 1000 mg/kg p.o.): + | Catalepsy in mice Minimal effective dose [MED] (Catalepsy in mice): >100 mg/kg | Ki [1]: 5 nM | acute toxicity (dead/treated animals) (mice; 300 mg/kg i.p.): 0/6 | acute toxicity (dead/treated animals) (mice; 1000 mg/kg p.o.): 0/6

COc1cc2c(cc1OC)C(C=Cc1c[nH]c3ccccc13)=NN=C(C)C2 [Example 71]
Ki [1]: 5 nM

COc1cc2c(cc1OC)C(C=Cc1cccc(N)c1)=NN=C(C)C2 [Example 74]
Ki [1]: 14 nM

COc1cc2c(cc1OC)C(C=Cc1ccc(Cl)c(N)c1)=NN=C(C)C2 [Example 77]
Behaviour ([2]; 300 mg/kg i.p.): + + | Behaviour ([2]; 1000 mg/kg p.o.): + + | Ki [1]: 10 nM | acute toxicity (dead/treated animals) (mice; 300 mg/kg i.p.): 0/5 | acute toxicity (dead/treated animals) (mice; 1000 mg/kg p.o.): 0/5

COc1cc2c(cc1OC)C(C=Cc1ccc(Cl)c(NC(C)=O)c1)=NN=C(C)C2 [Example 85, 1-[3'-(Acetylamino)-4-(chloro)-styryl]-4-[methyl]-7,8-di-[methoxy]-5H-2,3-benzodiazepine]
Behaviour ([2]; 300 mg/kg i.p.): +- | Behaviour ([2]; 1000 mg/kg p.o.): + | Ki [1]: 14 nM | acute toxicity (dead/treated animals) (mice; 300 mg/kg i.p.): 0/5 | acute toxicity (dead/treated animals) (mice; 1000 mg/kg p.o.): 0/5

CC1=NN=C(C=Cc2ccc(F)cc2)c2cc3c(cc2C1)OCO3 [Example 86, 1-[4'-(Fluoro)-styryl]-4-[methyl]-7,8-[methylenedioxy]-5H-2,3-benzodiazepine]
ED50 [3, 4]: > 100 mg/kg | minimal effective dose (rats): 0.003 mg/kg

CC1=NN=C(C=Cc2ccc(C(F)(F)F)cc2)c2cc3c(cc2C1)OCO3 [Example 87, 1-[4'-(Trifluoromethyl)-styryl]-4-[methyl]-7,8-[methylenedioxy]-5H-2,3-benzodiazepine]
ED50 [3, 4]: > 100 mg/kg | minimal effective dose (rats): 0.1 mg/kg

CC1=NN=C(C=Cc2ccc(C#N)cc2)c2cc3c(cc2C1)OCO3 [Example 88, 1-[4'-(Cyano)-styryl]-4-[methyl]-7,8-[methylenedioxy]-5H-2,3-benzodiazepine]
ED50 [3, 4]: > 100 mg/kg

CC1=NN=C(C=Cc2cccc(F)c2)c2cc3c(cc2C1)OCO3 [Example 89, 1-[3'-(Fluoro)-styryl]-4-[methyl]-7,8-[methylenedioxy]-5H-2,3-benzodiazepine]
minimal effective dose (rats): 0.3 mg/kg

CC1=NN=C(C=Cc2ccccc2F)c2cc3c(cc2C1)OCO3 [Example 90, 1-[2'-(Fluoro)-styryl)-4-[methyl]-7,8-[methylenedioxy]-5H-2,3-benzodiazepine]
minimal effective dose (rats): 0.3 mg/kg

CC1=NN=C(C=Cc2ccc(F)cc2)c2c(ccc3c2OCO3)C1 [Example 91, 1-[4'-(Fluoro)-styryl]-4-[methyl]-8,9-[methylenedioxy]-5H-2,3-benzodiazepine]
ED50 [3, 4]: > 100 mg/kg

CC1Cc2cc3c(cc2C(C=Cc2ccc(F)cc2)=NN1)OCO3 (stereo not shown) [Example 92, 1-[4'-(Fluoro)-styryl]-4-[methyl]-7,8-[methylenedioxy]-3,4-di-[hydro]-5H-2,3-benzodiazepine]
minimal effective dose (rats): 1 mg/kg

CN1C(=O)CN=C(c2ccccc2)c2cc(Cl)ccc21 [diazepam, 7-(chloro)-2,3-di-(hydro)-1-(methyl)-5-(phenyl)-1H-1,4-benzodiazepin-2-(one), reference compound]
ED50 ([3]; read-out: ID50): 23 mg/kg
